In patent publication US11787775B2, “Therapeutic compounds and methods of use” (priority 2020, dated 2023) one finds IC50 and EC50 data, which are given here for 13 compounds.

pEC50, pIC50: −log10 of the molar value. Some results are limits rather than exact numbers.

Common to all, as to type: binding
The target of one assay is TEAD1 (Homo sapiens (Human), UniProt P28347). Kind of assay: TEAD lipid pocket TR-FRET (Lipid HTRF) probe competition assay. To be noted: 30 mins incubation with compound; read-out: Lipid HTRF TEAD1 IC50. The method, then:
(§1) His-tagged TEAD proteins are pre-incubated with TEAD project compounds for 30 minutes or 4 hours at room temperature. Biotinylated lipid pocket probes are then added to the TEAD/Compound mixture and incubated for 60 minutes at room temperature. The lipid pocket probe competes with the test compound for the TEAD lipid pocket until equilibrium is reached. After 60 minutes, Europium labelled anti-His (Perkin Elmer #ADO 110) and XL665 labelled streptavidin (CIS Bio 610SAXAC) are added to the TEAD/test compound/lipid pocket mixture and incubated for 30 minutes or 4 hours. […] If a TEAD lipid pocket binder such as binds and displaces the lipid pocket probe, the disruption of the TEAD:probe interaction results in a decrease in TR-FRET signal. The potency of compounds as TEAD lipid pocket binders is determined by IC50 value generated using a non-linear 4 parameter curve fit.
(§2) Note that the “Compound Number” in Table 2 and Table 3 corresponds to the “Compound Number” in Table 1.

In the next assay the target is TEAD2 (Homo sapiens (Human), UniProt Q15562). The assay is described as above. As to conditions: 30 mins incubation with compound; read-out: Lipid HTRF TEAD2 IC50. The method, then:
as §1, §2
A general note: TR-FRET usually uses a lanthanide donor and a delayed reading to cut background.

For another assay, the target named is TEAD3 (Homo sapiens (Human), UniProt Q99594). Described as above. To be noted: 30 mins incubation with compound. The method, then:
as §1, §2

The target of the next assay is TEAD4 (Homo sapiens (Human), UniProt Q15561). Described as above. As to conditions: 30 mins incubation with compound; read-out: Lipid HTRF TEAD4 IC50. The method, then: as §1, §2
Sequence of TEAD4 (Q15561 whole entry, species assumed): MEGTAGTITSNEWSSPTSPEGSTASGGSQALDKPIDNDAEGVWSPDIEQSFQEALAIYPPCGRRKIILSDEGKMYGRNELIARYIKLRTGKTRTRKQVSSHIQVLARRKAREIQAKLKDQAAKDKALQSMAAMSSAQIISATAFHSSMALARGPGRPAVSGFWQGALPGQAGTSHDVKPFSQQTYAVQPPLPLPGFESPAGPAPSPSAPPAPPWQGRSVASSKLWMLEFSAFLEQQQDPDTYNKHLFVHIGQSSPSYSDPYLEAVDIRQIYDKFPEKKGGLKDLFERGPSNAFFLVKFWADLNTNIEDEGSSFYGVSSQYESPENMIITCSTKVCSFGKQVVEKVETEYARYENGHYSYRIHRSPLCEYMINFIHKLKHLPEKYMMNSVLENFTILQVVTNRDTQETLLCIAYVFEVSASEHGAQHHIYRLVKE
The next assay deals with TEAD1 YAP50-100 (Homo sapiens (Human), UniProt P28347). Nature of the assay: TEAD-YAP protein-protein interaction HTRF assay. As to conditions: TEAD1 YAP50-100 HTRF combined EC50, 30 mins incubation with compound. The method, then:
(§3) Purified His-tagged TEAD protein (YAP Binding Domain, amino acids 217-447) is pre-incubated with Europium labelled anti-His antibody tracer (Perkin Elmer Cat #AD0110). Small molecule Inhibitors are then incubated with the TEAD-Eu protein complex for 30 minutes or 4 hours to allow for binding to TEAD protein. Biotinylated YAP peptide for TEAD-YAP assays (AA's 50-100) or biotinylated TAZ peptide for TEAD-TAZ assays (AA's 13-57) that has been pre-incubated with streptavidin −xl665 acceptor (CIS-Bio Cat #610SAXAC) or is added to the compound-TEAD mix. The TEAD-YAP-inhibitor mixture is then incubated for 60 minutes at room temperature. All reactions are carried out in a polystyrene plate. After 60 minutes, the plate is read on a plate reader using TR-FRET mode with wavelengths of 665 nm/615 nm. If YAP or TAZ binds to TEAD as expected, a TR-FRET signal results from the proximity of YAP or TAZ and TEAD after binding. If an inhibitor such as peptide 17 (Selleckchem Cat #S8164) interferes with YAP-TEAD or TAZ-TEAD binding, the disruption of the YAP or TAZ:TEAD interaction results in a decrease in TR-FRET signal. The potency of compounds as YAP:TEAD or TAZ:TEAD protein-protein interaction (PPi) inhibitors is determined by an IC50 or EC50 value generated using a non-linear four parameter curve fit. The extent to which representative examples of the disclosed compounds are able to inhibit interaction between TEAD1, TEAD2, TEAD3 or TEAD4 and YAP truncated from amino acids 50-100 or TAZ truncated from amino acids 13-57 as measured by Homogeneous Time Resolved Fluorescence (HTRF) to generate EC50 and IC50 data.
(§4) Note that the “Compound Number” in Table 4 corresponds to the “Compound Number” in Table 1. […]

Another assay concerns the target TEAD2 YAP50-100 (Homo sapiens (Human), UniProt Q15562). Nature of the assay: TEAD-YAP protein-protein interaction HTRF assay. To be noted: TEAD2 YAP50-100 HTRF combined EC50, 30 mins incubation with compound. The method, then: as §3, §4
The target of a further assay is TEAD3 YAP50-100 (Homo sapiens (Human), UniProt Q99594). Kind of assay: TEAD-YAP protein-protein interaction HTRF assay. As to conditions: TEAD3 YAP50-100 HTRF combined EC50, 30 mins incubation with compound. The method, then: as §3, §4
Sequence of TEAD3 YAP50-100 (Q99594 218-435): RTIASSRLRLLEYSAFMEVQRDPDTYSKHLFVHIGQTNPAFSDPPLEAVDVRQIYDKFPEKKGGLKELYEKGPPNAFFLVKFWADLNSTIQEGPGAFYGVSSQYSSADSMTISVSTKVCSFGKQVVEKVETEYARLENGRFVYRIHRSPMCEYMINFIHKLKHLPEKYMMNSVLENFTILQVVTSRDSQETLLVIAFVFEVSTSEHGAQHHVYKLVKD
Another assay addresses TEAD4 YAP50-100 (Homo sapiens (Human), UniProt Q15561). Kind of assay: TEAD-YAP protein-protein interaction HTRF assay. As to conditions: TEAD4 YAP50-100 HTRF combined EC50, 30 mins incubation with compound. The method, then:
as §3, §4

In general, pIC50 refers to the IC50 on a negative log10 scale, so that one unit is a factor of ten. As a reminder, the pEC50 is the negative decadic logarithm of the EC50, by convention in mol/L.

Sequence of TEAD1 YAP50-100 (P28347 209-426): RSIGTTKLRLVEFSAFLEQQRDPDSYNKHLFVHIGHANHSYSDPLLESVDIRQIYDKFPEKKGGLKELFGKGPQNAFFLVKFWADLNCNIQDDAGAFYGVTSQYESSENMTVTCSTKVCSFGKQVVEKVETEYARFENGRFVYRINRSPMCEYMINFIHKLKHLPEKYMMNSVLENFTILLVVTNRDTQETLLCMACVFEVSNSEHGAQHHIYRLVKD
Sequence of TEAD3 (Q99594 whole entry, species assumed): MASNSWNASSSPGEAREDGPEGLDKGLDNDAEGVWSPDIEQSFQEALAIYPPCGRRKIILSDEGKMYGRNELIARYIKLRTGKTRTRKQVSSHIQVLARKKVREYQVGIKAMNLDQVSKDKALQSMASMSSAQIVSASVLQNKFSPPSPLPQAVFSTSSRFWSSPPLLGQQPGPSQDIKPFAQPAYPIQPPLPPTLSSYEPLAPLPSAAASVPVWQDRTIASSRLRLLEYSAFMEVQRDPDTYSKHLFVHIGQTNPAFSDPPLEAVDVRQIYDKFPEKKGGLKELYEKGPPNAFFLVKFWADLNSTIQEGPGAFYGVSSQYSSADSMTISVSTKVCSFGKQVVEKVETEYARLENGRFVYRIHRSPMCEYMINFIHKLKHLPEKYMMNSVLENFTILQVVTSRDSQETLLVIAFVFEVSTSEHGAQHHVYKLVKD
Sequence of TEAD2 YAP50-100 (Q15562 217-447): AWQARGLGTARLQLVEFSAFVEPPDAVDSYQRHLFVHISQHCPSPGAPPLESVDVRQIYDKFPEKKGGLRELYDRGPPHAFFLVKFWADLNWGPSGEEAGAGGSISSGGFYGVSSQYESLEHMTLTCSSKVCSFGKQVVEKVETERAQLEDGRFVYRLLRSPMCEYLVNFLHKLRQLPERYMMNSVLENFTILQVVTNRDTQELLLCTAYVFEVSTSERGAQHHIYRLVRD
Sequence of TEAD2 (Q15562 whole entry): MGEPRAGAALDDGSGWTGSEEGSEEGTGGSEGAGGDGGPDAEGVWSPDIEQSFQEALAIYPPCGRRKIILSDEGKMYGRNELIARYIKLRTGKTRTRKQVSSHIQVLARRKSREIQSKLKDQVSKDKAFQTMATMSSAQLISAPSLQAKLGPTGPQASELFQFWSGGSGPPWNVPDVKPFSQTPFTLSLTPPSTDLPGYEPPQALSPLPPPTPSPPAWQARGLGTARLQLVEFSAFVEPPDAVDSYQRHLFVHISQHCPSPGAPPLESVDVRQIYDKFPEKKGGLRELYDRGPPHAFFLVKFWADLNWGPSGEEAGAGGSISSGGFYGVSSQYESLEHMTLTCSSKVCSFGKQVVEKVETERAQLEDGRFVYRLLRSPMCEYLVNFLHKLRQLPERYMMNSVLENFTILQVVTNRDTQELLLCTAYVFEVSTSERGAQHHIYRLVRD
Sequence of TEAD4 YAP50-100 (Q15561 217-434): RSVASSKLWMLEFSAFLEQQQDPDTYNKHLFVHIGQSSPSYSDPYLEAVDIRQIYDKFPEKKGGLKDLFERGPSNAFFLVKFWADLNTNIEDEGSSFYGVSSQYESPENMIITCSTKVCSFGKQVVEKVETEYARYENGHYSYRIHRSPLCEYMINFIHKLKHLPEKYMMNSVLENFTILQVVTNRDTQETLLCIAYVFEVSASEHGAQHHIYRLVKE
Sequence of TEAD1 (P28347 whole entry, species assumed): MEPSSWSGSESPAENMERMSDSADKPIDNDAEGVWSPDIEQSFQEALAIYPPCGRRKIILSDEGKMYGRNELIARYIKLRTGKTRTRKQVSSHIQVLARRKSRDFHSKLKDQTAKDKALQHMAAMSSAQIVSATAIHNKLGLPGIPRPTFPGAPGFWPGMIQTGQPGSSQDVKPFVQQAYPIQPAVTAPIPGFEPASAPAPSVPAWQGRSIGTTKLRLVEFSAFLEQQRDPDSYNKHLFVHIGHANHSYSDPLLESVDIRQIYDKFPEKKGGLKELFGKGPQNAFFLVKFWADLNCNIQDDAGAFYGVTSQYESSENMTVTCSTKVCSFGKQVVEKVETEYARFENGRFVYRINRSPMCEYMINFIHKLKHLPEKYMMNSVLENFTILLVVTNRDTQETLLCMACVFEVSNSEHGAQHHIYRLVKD

With `C=C(CNc1cc(-c2ccc(C(C)C(F)(F)F)cc2)c2c(c1C#N)CCO2)C(=O)O` (single isomer, unassigned) [Enantiomer C from Example 16, 2-(((4-cyano-7-(4-(1,1,1-trifluoropropan-2-yl)phenyl)-2,3-dihydrobenzofuran-5-yl)amino)methyl)acrylic acid], the pIC50 was 7.70 at TEAD1, 7.40 at TEAD2, 5.52 on TEAD3 and 8.00 on TEAD4. Besides, the pEC50 on TEAD1 YAP50-100 is 8.00; at TEAD2 YAP50-100, 7.70; at TEAD3 YAP50-100 it was 5.23; at TEAD4 YAP50-100, 8.00.

For the compound `C=C(CNc1cc(-c2ccc(C(C)C(F)(F)F)cc2)c2c(c1C#N)CCO2)C(=O)O` (single isomer, unassigned) [Enantiomer D from Example 16, 2-(((4-cyano-7-(4-(1,1,1-trifluoropropan-2-yl)phenyl)-2,3-dihydrobenzofuran-5-yl)amino)methyl)acrylic acid], the pIC50 was 7.10 at TEAD1, 6.80 on TEAD2, 5.21 at TEAD3 and 7.52 on TEAD4. Moreover, the pEC50 on TEAD1 YAP50-100 is 7.40; on TEAD2 YAP50-100, 7.15; on TEAD3 YAP50-100, less than 4.30; at TEAD4 YAP50-100 it was 7.00.

In the case of `C=C(CNc1cc2c(c(-c3ccc(C(C)C)cc3)c1)OCC2)C(=O)O` [Compound 1, 2-[[[7-(4-isopropylphenyl)-2,3-dihydrobenzofuran-5-yl]amino]methyl]prop-2-enoic acid], the pIC50 is 6.66 on TEAD1, 6.66 on TEAD2, 5.08 at TEAD3 and 7.40 at TEAD4. For the same compound, the pEC50 at TEAD1 YAP50-100 is 6.77; at TEAD2 YAP50-100, 7.00; at TEAD3 YAP50-100, less than 4.30; at TEAD4 YAP50-100, 7.30.

In the case of `C=C(CNc1cc2c(c(-c3ccc(C(C)C)cc3)c1)OCC2)C(N)=O` [Compound 2, 2-[[[7-(4-isopropylphenyl)-2,3-dihydrobenzofuran-5-yl]amino]methyl]prop-2-enamide], the pIC50 is 6.23 at TEAD1, 7.10 on TEAD2, 4.74 on TEAD3 and 7.52 on TEAD4. Also, the pEC50 on TEAD1 YAP50-100 was 6.34; at TEAD2 YAP50-100, 7.15; on TEAD3 YAP50-100, 4.74; on TEAD4 YAP50-100, 7.05.

Regarding `C=C(CNc1cc(-c2ccc(C(C)C)cc2)c2c(c1C#N)CCO2)C(=O)O` [Compound 3, 2-[[[4-cyano-7-(4-isopropylphenyl)-2,3-dihydrobenzofuran-5-yl]amino]methyl]prop-2-enoic acid], the pIC50 at TEAD1 was 7.70; on TEAD2, 7.22; at TEAD3, 5.54; on TEAD4 it was 7.70. Moreover, the pEC50 at TEAD1 YAP50-100 was 7.70; at TEAD2 YAP50-100, 7.52; on TEAD3 YAP50-100, 5.21; on TEAD4 YAP50-100, 7.52.

Regarding `C=C(CNc1cc(-c2ccc(C(C)C)cc2)c2c(c1C#N)CCO2)C(N)=O` [Compound 4, 2-[[[4-cyano-7-(4-isopropylphenyl)-2,3-dihydrobenzofuran-5-yl]amino]methyl]prop-2-enamide], the pIC50 on TEAD1 is 6.49; at TEAD2, 7.00; at TEAD3, 5.00; at TEAD4, 7.10. In addition, the negative logarithm of the EC50 (pEC50) was 6.64 at TEAD1 YAP50-100, 7.30 on TEAD2 YAP50-100, 4.89 at TEAD3 YAP50-100 and 6.80 at TEAD4 YAP50-100.

Consider `C=C(CNc1cc(-c2ccc(C(C)C)cc2)c2c(c1C#N)CCO2)C(=O)NC` [Compound 5, 2-[[[4-cyano-7-(4-isopropylphenyl)-2,3-dihydrobenzofuran-5-yl]amino]methyl]-N-methyl-prop-2-enamide], for which the pIC50 on TEAD1 was 5.80; at TEAD2 it was 5.70; on TEAD3, less than 4.30; at TEAD4, 5.89. The pEC50 on TEAD1 YAP50-100, at TEAD2 YAP50-100, on TEAD3 YAP50-100 and on TEAD4 YAP50-100 was less than 4.30 each time.

Take `C=C(CNc1cc(-c2ccc(C(C)C)cc2)c2c(c1C#N)CCO2)C(=O)N(C)C` [Compound 6, 2-[[[4-cyano-7-(4-isopropylphenyl)-2,3-dihydrobenzofuran-5-yl]amino]methyl]-N,N-dimethyl-prop-2-enamide]: the negative-log IC50 (pIC50) was 5.96 at TEAD1, 5.46 on TEAD2, less than 4.30 on TEAD3 and 6.30 on TEAD4. The pEC50 was 6.01 on TEAD1 YAP50-100, 5.55 at TEAD2 YAP50-100, less than 4.30 at TEAD3 YAP50-100 and 6.00 at TEAD4 YAP50-100.

On to `C=C(CN(C)c1cc(-c2ccc(C(C)C)cc2)c2c(c1C#N)CCO2)C(=O)O` [Compound 7, 2-[[[4-cyano-7-(4-isopropylphenyl)-2,3-dihydrobenzofuran-5-yl]-methyl-amino]methyl]prop-2-enoic acid], for which the pIC50 on TEAD1 is 6.27; on TEAD2, 6.64; on TEAD3, 4.85; on TEAD4 it was 6.80. In addition, the negative-log EC50 (pEC50) at TEAD1 YAP50-100 was 6.29; at TEAD2 YAP50-100, 6.74; at TEAD3 YAP50-100, less than 4.30; at TEAD4 YAP50-100, 6.37.

In the case of `C=C(CNc1cc(-c2ccc(C(C)C)cc2)c2c(c1C#N)CCO2)C(=O)OC` [Compound 8, methyl 2-[[[4-cyano-7-(4-isopropylphenyl)-2,3-dihydrobenzofuran-5-yl]amino]methyl]prop-2-enoate], the pIC50 on TEAD1 is 7.15; at TEAD2, 7.40; on TEAD3, 6.62; at TEAD4, 7.70. Also, the pEC50 at TEAD1 YAP50-100, at TEAD2 YAP50-100, at TEAD3 YAP50-100 and on TEAD4 YAP50-100 was less than 4.30 in each case.

With `C=C(CNc1cc(-c2ccc(C(C)C)cc2)c2c(c1C#N)CCO2)C(=O)NO` [Compound 9, 2-[[[4-cyano-7-(4-isopropylphenyl)-2,3-dihydrobenzofuran-5-yl]amino]methyl]prop-2-enehydroxamic acid], the pIC50 was 6.55 on TEAD1, 6.96 on TEAD2, 5.62 at TEAD3 and 6.92 on TEAD4. The pEC50 is 6.72 on TEAD1 YAP50-100, 7.30 at TEAD2 YAP50-100, 5.66 at TEAD3 YAP50-100 and 6.55 on TEAD4 YAP50-100.

Turning to `C=C(CNc1cc(-c2ccc(C(C)C)cc2)c2c(c1C#N)CCO2)B(O)O` [Compound 10, 1-[[[4-cyano-7-(4-isopropylphenyl)-2,3-dihydrobenzofuran-5-yl]amino]methyl]vinylboronic acid], the pIC50 on TEAD1 was 5.20; at TEAD2, 5.57; at TEAD3 it was less than 4.30; at TEAD4, 5.89. The pEC50 on TEAD1 YAP50-100 is 5.24; on TEAD2 YAP50-100, 5.68; at TEAD3 YAP50-100, less than 4.30; on TEAD4 YAP50-100 it was 5.68.

Turning to `C=C(CNc1cc(-c2ccc(C(C)C)cc2)c2c(c1C#N)CCO2)C(C)=O` [Compound 11, 7-(4-isopropylphenyl)-5-[(2-methylene-3-oxo-butyl)amino]-2,3-dihydrobenzofuran-4-carbonitrile], the pIC50 at TEAD1 was 6.74; on TEAD2, 7.10; at TEAD3, 6.89; on TEAD4, 7.40. Also, the pEC50 on TEAD1 YAP50-100 is 6.49; at TEAD2 YAP50-100 it was 6.89; on TEAD3 YAP50-100, 6.70; on TEAD4 YAP50-100, 7.10.
